ChEMBL document CHEMBL1148043, “Alectosarmentin, a new antimicrobial dibenzofuranoid lactol from the lichen, Alectoria sarmentosa” (1994)
Activity calls are given as the source filed them. The calls are words filed in the database; no cut-off is given here.

Assays:
Staphylococcus aureus = experiment: Antimicrobial activity against Staphylococcus aureus ATCC 13709 by agar-dilution streak method; format: functional
[1] = system: Mycolicibacterium smegmatis; experiment: Antimicrobial activity against Mycobacterium smegmatis ATCC 607 by agar-dilution streak method; format: functional
Candida albicans [2] = experiment: Antimicrobial activity against Candida albicans ATCC 10231 by agar-dilution streak method; format: functional
Pseudomonas aeruginosa = experiment: Antimicrobial activity against Pseudomonas aeruginosa ATCC 27853 at 100 ug/ml by agar-dilution streak method; format: functional, organism-based
Escherichia coli [3] = experiment: Antimicrobial activity against Escherichia coli ATCC 9637 at 100 ug/ml by agar-dilution streak method; format: functional, organism-based
[4] = system: Salmonella enterica subsp. enterica serovar Gallinarum; experiment: Antimicrobial activity against Salmonella gallinarum ATCC 9184 at 100 ug/ml by agar-dilution streak method; format: functional, organism-based
Klebsiella pneumoniae [5] = experiment: Antimicrobial activity against Klebsiella pneumoniae ATCC 10031 at 100 ug/ml by agar-dilution streak method; format: functional, organism-based
Candida albicans [6] = experiment: Antimicrobial activity against Candida albicans ATCC 10231 at 100 ug/ml by agar-dilution streak method; format: functional, organism-based
Escherichia coli [7] = experiment: Antimicrobial activity against Escherichia coli ATCC 9637 by agar-dilution streak method; format: functional
[8] = system: Salmonella enterica subsp. enterica serovar Gallinarum; experiment: Antimicrobial activity against Salmonella gallinarum ATCC 9184 by agar-dilution streak method; format: functional
Klebsiella pneumoniae [9] = experiment: Antimicrobial activity against Klebsiella pneumoniae ATCC 10031 by agar-dilution streak method; format: functional

SMILES	Activity (Staphylococcus aureus)	Activity [1]	Activity (Candida albicans [2])	Activity (Pseudomonas aeruginosa)	Activity (Escherichia coli [3])	Activity [4]	Activity (Klebsiella pneumoniae [5])	Activity (Candida albicans [6])	Activity (Escherichia coli [7])	Activity [8]	Activity (Klebsiella pneumoniae [9])
CCCCCc1cc2cc(O)cc(Oc3c(O)cc(O)c4c3CC(CCCCC)(OCC)OC4=O)c2c(=O)o1 (stereo not given)	50 µg/mL	50 µg/mL	100 µg/mL	inactive	inactive	inactive	inactive	–	–	–	–
CC(=O)C1=C(O)C=C2Oc3c(C(C)=O)c(O)c(C)c(O)c3[C@]2(C)C1=O [(-)-USNIC ACID]	25 µg/mL	6.25 µg/mL	50 µg/mL	inactive	inactive	inactive	inactive	–	–	–	–
Cc1cc(O)cc2oc3cc(O)c4c(c3c12)C(O)OC4=O (stereo not given) [ALECTOSARMENTIN]	25 µg/mL	25 µg/mL	–	inactive	inactive	inactive	inactive	inactive	–	–	–
CCCCCC(=O)Cc1cc(O)cc2c1C(=O)Oc1cc(O)c(C(=O)O)c(CCCCC)c1O2 [PHYSODIC ACID]	25 µg/mL	100 µg/mL	–	inactive	inactive	inactive	inactive	inactive	–	–	–
CN[C@@H]1[C@H](O[C@H]2[C@H](O[C@H]3[C@H](O)[C@@H](O)[C@H](N=C(N)N)[C@@H](O)[C@@H]3N=C(N)N)O[C@@H](C)[C@]2(O)C=O)O[C@@H](CO)[C@H](O)[C@H]1O.CN[C@@H]1[C@H](O[C@H]2[C@H](O[C@H]3[C@H](O)[C@@H](O)[C@H](N=C(N)N)[C@@H](O)[C@@H]3N=C(N)N)O[C@@H](C)[C@]2(O)C=O)O[C@@H](CO)[C@H](O)[C@H]1O.O=S(=O)(O)O.O=S(=O)(O)O.O=S(=O)(O)O [STREPTOMYCIN SULFATE]	5 µg/mL	1.25 µg/mL	–	inactive	–	–	–	inactive	5 µg/mL	50 µg/mL	2.5 µg/mL
